This note sets out measurements from patent EP0039388A2, “Diagnostic method for the determination of the liver function” (Röhm Pharma GmbH, priority 1980, dated 1981).

Entries after “also recorded” stand apart in the source; their conditions may differ. Where two headings read alike, the source gives them in different places.

Holding throughout (format): in vivo, Menschen
Series [1] in a line: Plasma half-lives of TA and OH-TA-Ester after oral triamterene. The following applies: for half-life: human, plasma, po, read-out: Plasmahalbwertszeiten (converted). The text has this:
(§1) Bei dem Test wurde darauf geachtet, daß die Versuchspersonen der gleichen Altersgruppe und dem gleichen Geschlecht angehörten und eine annähernd gleiche Nierenfunktion vorlag. Während der Versuchsperiode waren sie stationär aufgenommen und unterlagen denselben Ernährungsbedingungen. Außer den unumgänglich notwendigen, wurden alle anderen Medikamente, insbesondere Diuretika vor Versuchsbeginn abgesetzt.
Die Plasmahalbwertszeiten wurden nach der Formel t50 % = [formula] berechnet, die Flächen unter den Kurven konnten mit Hilfe der Trapezregel errechnet werden.
Die Plasmaproben werden mit dem doppelten Volumen Methanol verdünnt, das ausfallende Protein ausgefällt. Vom Überstand wird ein definierter Anteil auf Kieselgel-Platten (z. B. Kieselgel-60-Fertigplatten "Merck") ohne Fluoresz.enzindi- kator aufgetragen. Anschließend wird mit dem Fließmittel Essigsäureethylester/Methanol/Ammoniak 25 %ig (60 + 30 + 10) bei Kammersättigung chromatographiert. Danach werden die Platten getrocknet und die Substanzen fluoreszenzspektroskopisch gemessen.

A short description of series [2]: Urinary excretion of TA and OH-TA-Ester after oral triamterene.
Excerpt: as §1
Die Durchführung des erfindungsgemäßen diagnostischen Verfahrens kann ebenfalls mit dem Urin der Patienten erfolgen. Während einer Versuchsdauer von 5 Tagen konnte TA und der OH-TA-Ester nachgewiesen werden.
Analog kann auch die Konzentration von TA und OH-TA-Ester im Urin bestimmt werden.

Series [3] is described as follows: Ratio of TA to OH-TA-Ester in plasma and/or urine after oral administration of triamterene (liver function test). The note with it: for Verhältnis des OH-TA-Esters zu TA: printed as (x):1.
Excerpt: Es wurde gefunden, daß sich Einschränkungen der Leberfunktion mit sehr geringem Aufwand und mit großer diagnostischer und analytischer Sicherheit nachweisen lassen, wenn man 2,4,7-Triamino-6-phenylpteridin (Triamteren = TA) dem Patienten oral verabreicht und in geeignetem zeitlichen Abstand das Verhältnis TA zu OH-TA-Ester im Plasma und/oder im Urin des Patienten bestimmt. Bei normaler Leberfunktion beträgt das Verhältnis TA zu OH-TA-Ester 1:3 bis 1:10. […] Man findet demnach je nach Einschränkung der Leberfunktion mehr natives TA als OH-TA-Ester, was als eine direkte Auswirkung der gestörten Funktion der Leber zu metabolischer Umwandlung von körperfremden Stoffen im Organismus und damit als Indikator für die Leberfunktion überhaupt gewertet werden kann.
Die Verabreichung des Triamteren zur erfindungsgemäßen Bestimmung der Leberfunktionseinschränkung geschieht oral. Bei der Herstellung der Verabreichungsformen (Kapseln, Tabletten etc.) und der Verabreichung selbst, kann von den Erfahrungen mit Triamteren als Therapeutikum ausgegangen werden. Die zur Durchführung des erfindungsgemäßen diagnostischen Verfahrens benötigten Mengen an Triamteren können innerhalb gewisser Grenzen schwanken, beispielsweise zwischen 50 und 300 mg, vorzugsweise bis 100 mg. Zur Einhaltung standardisierter Bedingungen kann es zweckmäßig sein, gleichbleibende Quantitäten an Triamteren zu verabreichen. Dabei kann vorteilhaft von bereits auf dem Markt befindlichen Handelsformen (z. B. Kapseln mit 50 mg Triamteren Jatropur^R) Gebrauch gemacht werden.
as §1
Die Plasmahalbwertszeiten wurden nach der Formel t50 % = [formula] berechnet, die Flächen unter den Kurven konnten mit Hilfe der Trapezregel errechnet werden. […]

Consider `Nc1nc(N)c2nc(-c3ccccc3)c(N)nc2n1` [TA, 2,4,7-Triamino-6-phenylpteridin], for which, in series [1] (Lebergesunde), the half-life is about 5.5 h. In series [1] (Leberzirrhotiker, average), the half-life was 11.2 h. In addition, in series [2] (in vivo), the “Ausscheidung im Harn beendet” value was 72 Stunden and the “Ausscheidung im Harn nicht völlig abgeschlossen” value is over 5 Tagen.
Regarding `Nc1nc(N)c2nc(-c3ccc(OS(=O)(=O)O)cc3)c(N)nc2n1` [OH-TA-Ester], the “Verhältnis des OH-TA-Esters zu TA” value in series [3] (Lebergesunde) is 4-10; in series [3] (Leberzirrhotiker, ratio reversed in one cirrhotic) it was 1-3,2. The “Konzentration des OH-TA-Esters in Plasma höher als die der nativen Substanz Triamteren (TA)” value in series [3] (subjects with healthy liver, plasma, fold over TA) was “vier- bis zwölffache”. The “Plasmahalbwertszeiten, change in Leberzirrhotiker versus Lebergesunde” value in series [1] (Leberzirrhotiker compared with Lebergesunde) was “auf das Doppelte verlängert; also recorded: deutlich erhöht, beispielsweise verdoppelt”. Also, the “Ausscheidung im Harn beendet” value in series [2] (Lebergesunde, time after which excretion has ended) was determined as 72 Stunden. The “Ausscheidung im Harn nicht völlig abgeschlossen” value in series [2] (Leberzirrhotiker, excretion still not fully complete at this time) is on record as over 5 Tagen. Moreover, in series [2] (patients' urine, test duration of 5 days), the “Nachweis im Urin” value is recorded as “nachgewiesen”.
